From US20210101881A1 (Ancureall Pharmaceutical (Shanghai) Co., Ltd., priority 2018, published 2021)

These compounds were tested on MOLM13 cells (assay: Growth inhibition of CDK9-positive cell line MOLM13 in vitro (CCK8/MTT assay)). Settings: Homo sapiens, MOLM-13, read-out: IC50 of the compound for inhibiting cell growth, MOLM13 cells.
Type: cell-based, human
Method: 1. MOLM13 cell line and cell culture MOLM13 is a CDK9-positive human acute myeloid leukemia cell line from DMSZ. Suspension culture was carried out in RPMI1640 (Gibco) medium with 10% fetal bovine serum (Gibco), 1% penicillin-streptomycin and 2 mM glutamine.
Suspended MOLM-13 cells in logarithmic growth phase were collected by centrifugation (1700 rpm, 3 minutes), the supernatant was discarded, and the cells were counted. A solution with a cell concentration of 2×10^5 cells per milliliter was formulated and inoculated in a 96-well plate (Corning) with 100 microliters per well. The plate was incubated at 37° C., 5% CO2 overnight. On the next day, the test compound was added to the cultured cells in two parallel wells. […]
The present compound and the control compounds were respectively dissolved in DMSO (Sigma).
When the solvent control well became dark yellow, the OD450 nm absorption value was measured, and the cell growth rate was calculated according to the following formula. Cell growth rate %=100*(T−T0)/(C−T0), wherein T=the optical density value of the drug-treated well—the optical density value of the blank control well, T0=the optical density value of the well before drug treatment—the optical density value of the blank control well, C=the optical density value of the solvent control well—the optical density value of the blank control well. […] The assay was repeated three times, and the data was subjected to a biological statistical analysis.

Row | Structure (SMILES) | IC50
1 | CN1CCN(CCOc2ccc(Nc3nccc(-n4cc(C(N)=O)c5ccccc54)n3)cc2)CC1 [Compound 18, 1-(2-{4-[2-(4-methyl-piperazin-1-yl)-ethoxy]-phenylamino}-pyrimidin-4-yl)-1H-indole-3-carboxamide] | 0.01 to 0.1 µM
2 | NC(=O)c1cn(-c2ccnc(Nc3ccc(N4CCNCC4)cc3)n2)c2ccccc12 [Compound 27, 1-[2-(4-piperazin-1-yl-phenylamino)-pyrimidin-4-yl]-1H-indole-3-carboxamide] | 0.001 to 0.01 µM

Same assay, conditions: Homo sapiens, MOLM-13; MOLM13 cells, cultured 3 to 6 days, CCK8; read-out: IC50 of the compound for inhibiting cell growth, MOLM13 cells

Row | IC50 | Structure (SMILES)
3 | 0.01 to 0.1 µM | COc1cc(F)ccc1-c1cc(Nc2cc(CS(C)(=N)=O)ccn2)ncc1F (stereo not drawn) [BAY1251125, reference compound]
4 | > 1 µM | NC(=O)c1cn(-c2ccnc(Nc3ccc(F)c(Br)c3)n2)c2ccccc12 [Compound 1, 1-[2-(3-bromo-4-fluoro-phenylamino)-pyrimidin-4-yl]-1H-indole-3-carboxamide]
5 | > 1 µM | NC(=O)c1cn(-c2ccnc(Nc3ccc(C(F)(F)F)c(Cl)c3)n2)c2ccccc12 [Compound 2, 1-[2-(3-chloro-4-trifluoromethyl-phenylamino)-pyrimidin-4-yl]-1H-indole-3-carboxamide]
6 | > 1 µM | NC(=O)c1cn(-c2ccnc(Nc3cccc(F)c3Cl)n2)c2ccccc12 [Compound 3, 1-[2-(2-chloro-3-fluoro-phenylamino)-pyrimidin-4-yl]-1H-indole-3-carboxamide]
7 | > 1 µM | NC(=O)c1cn(-c2ccnc(Nc3cc(F)cc(C(F)(F)F)c3)n2)c2ccccc12 [Compound 4, 1-[2-(3-fluoro-5-trifluoromethyl-phenylamino)-pyrimidin-4-yl]-1H-indole-3-carboxamide]
8 | > 1 µM | COc1ccc(Nc2nccc(-n3cc(C(N)=O)c4ccccc43)n2)cc1OC [Compound 5, 1-[2-(3,4-methoxy-phenylamino)-pyrimidin-4-yl]-1H-indole-3-carboxamide]
9 | > 1 µM | NC(=O)c1cn(-c2ccnc(Nc3ccc(F)c([N+](=O)[O-])c3)n2)c2ccccc12 [Compound 6, 1-[2-(4-fluoro-3-nitro-phenylamino)-pyrimidin-4-yl]-1H-indole-3-carboxamide]
10 | 0.01 to 0.1 µM | COc1cc(F)c([N+](=O)[O-])cc1Nc1nccc(-n2cc(C(N)=O)c3ccccc32)n1 [Compound 7, 1-[2-(4-fluoro-2-methoxy-5-nitro-phenylamino)-pyrimidin-4-yl]-1H-indole-3-carboxamide]
11 | 0.01 to 0.1 µM | CN(C)CCNc1ccc(Nc2nccc(-n3cc(C(N)=O)c4ccccc43)n2)cc1 [Compound 8, 1-{2-[4-(2-dimethylamino-ethylamino)-phenylamino]-pyrimidin-4-yl}-1H-indole-3-carboxamide]
12 | 0.01 to 0.1 µM | NC(=O)c1cn(-c2ccnc(Nc3ccc(NCCN4CCOCC4)cc3)n2)c2ccccc12 [Compound 9, 1-{2-[4-(2-morpholin-4-yl-ethylamino)-phenylamino]-pyrimidin-4-yl}-1H-indole-3-carboxamide]
13 | 0.01 to 0.1 µM | NC(=O)c1cn(-c2ccnc(Nc3ccc(NCCN4CCCCC4)cc3)n2)c2ccccc12 [Compound 10, 1-{2-[4-(2-piperidin-1-yl-ethylamino)-phenylamino]-pyrimidin-4-yl}-1H-indole-3-carboxamide]
14 | 0.01 to 0.1 µM | CN1CCN(CCNc2ccc(Nc3nccc(-n4cc(C(N)=O)c5ccccc54)n3)cc2)CC1 [Compound 11, 1-(2-{4-[2-(4-methyl-piperazin-1-yl)-ethylamino]-phenylamino}-pyrimidin-4-yl)-1H-indole-3-carboxamide]
15 | 0.01 to 0.1 µM | NC(=O)c1cn(-c2ccnc(Nc3ccc(NC4CCNCC4)cc3)n2)c2ccccc12 [Compound 12, 1-{2-[4-(piperidin-4-amino)-phenylamino]-pyrimidin-4-yl}-1H-indole-3-carboxamide]
16 | 0.01 to 0.1 µM | NC(=O)c1cn(-c2ccnc(Nc3ccc(NCCN4CCCC4)cc3)n2)c2ccccc12 [Compound 13, 1-{2-[4-(2-pyrrolidin-1-yl-ethylamino)-phenylamino]-pyrimidin-4-yl}-1H-indole-3-carboxamide]
17 | 0.01 to 0.1 µM | NC(=O)c1cn(-c2ccnc(Nc3ccc(CN4CCOCC4)cc3)n2)c2ccccc12 [Compound 14, 1-[2-(4-morpholin-4-methyl-phenylamino)-pyrimidin-4-yl]-1H-indole-3-carboxamide]
18 | 0.01 to 0.1 µM | CC(=O)N1CCN(Cc2ccc(Nc3nccc(-n4cc(C(N)=O)c5ccccc54)n3)cc2)CC1 [Compound 15, 1-{2-[4-(4-acetyl-piperazin-1-methyl)-phenylamino]-pyrimidin-4-yl}-1H-indole-3-carboxamide]

Row | IC50 | Structure (SMILES)
19 | 0.1 to 1 µM | COc1ccc(Nc2nccc(-n3cc(C(N)=O)c4ccccc43)n2)cc1 [Compound 17, 1-[2-(4-methoxy-phenylamino)-pyrimidin-4-yl]-1H-indole-3-carboxamide]
20 | 0.01 to 0.1 µM | CN(C)CCOc1ccc(Nc2nccc(-n3cc(C(N)=O)c4ccccc43)n2)cc1 [Compound 19, 1-{2-[4-(2-dimethylamino-ethoxy)-phenylamino]-pyrimidin-4-yl}-1H-indole-3-carboxamide]
21 | 0.01 to 0.1 µM | NC(=O)c1cn(-c2ccnc(Nc3ccc(OCCN4CCCC4)cc3)n2)c2ccccc12 [Compound 20, 1-{2-[4-(2-pyrrolidin-1-yl-ethoxy)-phenylamino]-pyrimidin-4-yl}-1H-indole-3-carboxamide]
22 | 0.01 to 0.1 µM | NC(=O)c1cn(-c2ccnc(Nc3ccc(OCCN4CCOCC4)cc3)n2)c2ccccc12 [Compound 21, 1-{2-[4-(2-morpholin-4-yl-ethoxy)-phenylamino]-pyrimidin-4-yl}-1H-indole-3-carboxamide]
23 | 0.01 to 0.1 µM | NC(=O)c1cn(-c2ccnc(Nc3ccc(OCCN4CCNCC4)cc3)n2)c2ccccc12 [Compound 22, 1-(2-{4-[2-(4-piperazin-1-yl)-ethoxy]-phenylamino]-pyrimidin-4-yl}-1H-indole-3-carboxamide]
24 | 0.01 to 0.1 µM | CN(C)CCSc1ccc(Nc2nccc(-n3cc(C(N)=O)c4ccccc43)n2)cc1 [Compound 23, 1-{2-[4-(2-dimethylamino-ethylthio)-phenylamino]-pyrimidin-4-yl}-1H-indole-3-carboxamide]
25 | 0.01 to 0.1 µM | NC(=O)c1cn(-c2ccnc(Nc3ccc(N4CCC(N5CCCCC5)CC4)cc3)n2)c2ccccc12 [Compound 24, 1-[2-(4-[1,4′]bipiperidin-1′-yl-phenylamino)-pyrimidin-4-yl]-1H-indole-3-carboxamide]
26 | 0.01 to 0.1 µM | NC(=O)c1cn(-c2ccnc(Nc3ccc(N4CCN(CCO)CC4)cc3)n2)c2ccccc12 [Compound 25, 1-(2-{4-[4-(2-hydroxy-ethyl)-piperazin-1-yl]-phenylamino}-pyrimidin-4-yl)-1H-indole-3-carboxamide]
27 | 0.01 to 0.1 µM | COCCN1CCN(c2ccc(Nc3nccc(-n4cc(C(N)=O)c5ccccc54)n3)cc2)CC1 [Compound 26, 1-(2-{4-[4-(2-methoxy-ethyl)-piperazin-1-yl]-phenylamino}-pyrimidin-4-yl)-1H-indole-3-carboxamide]
28 | 0.001 to 0.01 µM | Cc1cc(Nc2nccc(-n3cc(C(N)=O)c4ccccc43)n2)ccc1N1CCNCC1 [Compound 28, 1-[2-(3-methyl-4-piperazin-1-yl-phenylamino)-pyrimidin-4-yl]-1H-indole-3-carboxamide]
29 | 0.001 to 0.01 µM | NC(=O)c1cn(-c2ccnc(Nc3ccc(N4CCNCC4)cc3)n2)c2cc(F)ccc12 [Compound 30, 6-fluoro-1-[2-(4-piperazin-1-yl-phenylamino)-pyrimidin-4-yl]-1H-indole-3-carboxamide]
30 | 0.01 to 0.1 µM | NC(=O)c1cn(-c2ccnc(Nc3ccc(N4CCNCC4)cc3)n2)c2c(F)cccc12 [Compound 31, 7-fluoro-1-[2-(4-piperazin-1-yl-phenylamino)-pyrimidin-4-yl]-1H-indole-3-carboxamide]
31 | 0.01 to 0.1 µM | NC(=O)c1cn(-c2ccnc(Nc3ccc(N4CCNCC4)cc3)n2)c2ccc(Br)cc12 [Compound 32, 5-bromo-1-[2-(4-piperazin-1-yl-phenylamino)-pyrimidin-4-yl]-1H-indole-3-carboxamide]
32 | 0.001 to 0.01 µM | COc1ccc2c(c1)c(C(N)=O)cn2-c1ccnc(Nc2ccc(N3CCNCC3)cc2)n1 [Compound 33, 5-methoxy-1-[2-(4-piperazin-1-yl-phenylamino)-pyrimidin-4-yl]-1H-indole-3-carboxamide]
33 | < 0.001 µM | NC(=O)c1cn(-c2nc(Nc3ccc(N4CCNCC4)cc3)ncc2F)c2ccccc12 [Compound 35, 1-[5-fluoro-2-(4-piperazin-1-yl-phenylamino)-pyrimidin-4-yl]-1H-indole-3-carboxamide]
34 | 0.001 to 0.01 µM | COc1cnc(Nc2ccc(N3CCNCC3)cc2)nc1-n1cc(C(N)=O)c2ccccc21 [Compound 36, 1-[5-methoxy-2-(4-piperazin-1-yl-phenylamino)-pyrimidin-4-yl]-1H-indole-3-carboxamide]

Row | Structure (SMILES) | IC50
35 | NC(=O)c1cn(-c2ccnc(Nc3ccc(N4CCNCC4)cc3)n2)c2cccc(F)c12 [Compound 29, 4-fluoro-1-[2-(4-piperazin-1-yl-phenylamino)-pyrimidin-4-yl]-1H-indole-3-carboxamide] | 0.01 to 0.1 µM
36 | NC(=O)c1cn(-c2nc(Nc3ccc(N4CCNCC4)cc3)ncc2Cl)c2ccccc12 [Compound 34, 1-[5-chloro-2-(4-piperazin-1-yl-phenylamino)-pyrimidin-4-yl]-1H-indole-3-carboxamide] | < 0.001 µM
